From patent US7005447B2, “Food product comprising hydroxymatairesinol” (Hormos Nutraceutical Oy Ltd., priority 1999, dated 2006)
Where two headings read alike, the source gives them in different places.

Experiments:
[1] = tested on: tert-butylhydroperoxide-induced lipid peroxidation (t-BuOOH-LP) in rat liver microsomes; assay: Inhibition of tert-butylhydroperoxide-induced lipid peroxidation (t-BuOOH-LP), chemiluminescence; type: biochemical
Description: Inhibition of lipid peroxidation was evaluated on the basis of their potency to inhibit tert-butylhydroperoxide-induced lipid peroxidation (t-BuOOH-LP) in rat liver microsomes in vitro (Ahotupa et al. 1997). The test for the t-BuOOH-LP was carried out as follows: The buffer (50 mM sodium carbonate, pH 10.2, with 0.1 mM EDTA) was pipetted in a volume of 0.8 ml in the luminometer cuvette. Twenty microliters of diluted liver microsomes, final concentration 1.5 mg protein/ml, was added, followed by […] of luminol (0.5 mg/ml) and test chemicals. The test compounds were added to incubation mixtures in a small volume diluted in ethanol or dimethylsulphoxide (2% of incubation volume), and the lipid peroxidation potency was compared to that of the vehicle (ethanol or dimethyl sulphoxide). The reaction was initiated by 0.05 ml of 0.9 mM t-BuOOH at 33° C. Chemiluminescence was measured for about 45 min at 1 min cycles, and the area under curve (integral) was calculated. Chemiluminescence measurements were carried out using a Bio-Orbit 1251 Luminometer (Bio-Orbit, Turku, Finland) connected to a personal computer using dedicated software for the assays.

aromatase = target: T1, aromatase (Homo sapiens, UniProt P11511); assay: Aromatase inhibiting capacity in JEG-3 cells (3H-17β-estradiol formation from 3H-androstenedione); type: cell-based; details: 4 h incubation, FIG. 1
T1 construct: 800 μl cell suspension (1 million cells); endogenous in cells; host or cells: JEG-3 human choriocarcinoma cells
T1 sequence (P11511 1-503): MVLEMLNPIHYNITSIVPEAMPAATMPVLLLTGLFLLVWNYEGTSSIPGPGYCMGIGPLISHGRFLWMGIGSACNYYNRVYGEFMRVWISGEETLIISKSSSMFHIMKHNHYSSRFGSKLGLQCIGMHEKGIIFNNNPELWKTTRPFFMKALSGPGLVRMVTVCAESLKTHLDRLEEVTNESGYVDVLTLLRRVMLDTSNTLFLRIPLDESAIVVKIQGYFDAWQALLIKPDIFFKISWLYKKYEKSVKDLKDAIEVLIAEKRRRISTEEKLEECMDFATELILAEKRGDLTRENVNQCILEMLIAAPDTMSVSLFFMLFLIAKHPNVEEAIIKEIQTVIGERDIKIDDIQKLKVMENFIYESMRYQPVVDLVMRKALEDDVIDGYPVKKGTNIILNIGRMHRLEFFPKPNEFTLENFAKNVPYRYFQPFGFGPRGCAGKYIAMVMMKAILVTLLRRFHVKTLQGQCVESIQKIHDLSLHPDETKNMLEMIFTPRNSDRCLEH
Description: The effects of HMR and structurally related lignans (enterolactone, enterodiol and 7-hydroxyenterolactone) were studied on formation of ^3H-17β-estradiol from ^3H-andostenedione in JEG-3 cells, human choriocarcinoma cell line. […] Cells were maintained in DMEM containing 10% fetal calf serum (FCS). The incubation mixture contained 50 μl ^3H-androst-4-ene, 3,17-dione (0.5 nM), 50 μl unlabelled androstenedione (0.5 nM), 100 μl test compounds (10 mM) and 800 μl cell suspension (1 million cells). After the incubation for 4 h, unlabelled carriers (androstenedione, testosterone, 17β-estradiol and estrone) were added. The steroids were extracted twice with 3.0 ml dichloromethane. […] The column system consisted of a guard column followed by a C18 150×3.9 mm ID analytical column (Technopak 10 C18 HPLC Technology; Wellington House, Cheshire, UK). The mobile phase was acetonitrile/water (35/65) and the flow rate was 1.2 ml/min. For in-line detection of the radioactive metabolites, the eluent of the HPCL column was continuously mixed with liquid scintillant and then monitored with in-line radioactivity detector.

[2] = Analysis of metabolites from rat urine after different doses of HMR (GC-MS); type: in vivo; details: 24 hour urine
Description: Ten Sprague—Dawley male rats (age 4 month) were used to study the metabolism of HMR in vivo. Animals were housed in pairs with 12 h light:dark cycle and had free access to water and soy-free basal diet (SDS, Whitham Essex, England) during the metabolism study.
Rats were cavaged with HMR dissolved in 10% ethanol in PEG in doses 3, 15, 25 and 50 mg/kg body weight once a day for two days. After second cavaging the 24 hour urine was collected in metabolic cages in collection jars containing 120 μl 0.56 M ascorbic acid and 120 μl 0.15 M Na-azide as preservatives. The centrifuged urine volumes were measured and stored in −20° C. For pretreatment 750 μl 0.2 M acetate buffer (pH 4.0±0.1) was added to 3.0 ml thawed urine aliquots. Sep-Pak C18 columns (100 mg silica based resin/column) were used for urine extractions. Columns were preconditioned with 3.0 ml H2O, 3.0 ml methanol and 3.0 ml acetate buffer. After urine had filtered through the column and washed with 3.0 ml of acetate buffer polyphenolics were eluted with 3.0 ml methanol. The eluate was evaporated to dryness under nitrogen in +45° C. water bath and dryed residues were redissolved in 3.0 ml of 0.2 M acetate buffer. 30 μl Helix pomatia enzyme mix was added and the solutions were incubated in +37° C. to hydrolyze both glucuronides and sulfates. 300 μl of flavone stock solution (100 μg/ml in EtOH) was added into hydrolyzed samples. The samples were extracted in C-18 columns and evaporated to dryness as described above and stored in −20° C. until analyzed with GC-MS.
The evaporated urine samples were dissolved in pyridine, and silylated by adding BSTFA:TMCS (10:1) silylation reagent. The GC-MS analyses of the silylated samples were performed with an HP 6890-5973 GC-MS instrument. The GC column was an HP-1 crosslinked methyl polysiloxane column (15 m×0.25 mm i.d., 0.25 μm film thickness). Helium was used as carrier gas at a flow of 1 ml/min. […] The quantitative calculations were based on uncorrected peak areas of target components relative to the internal standard.

COc1cc(CC2C(=O)OCC2C(O)c2ccc(O)c(OC)c2)ccc1O (stereo not drawn) [HMR, hydroxymatairesinol]
IC50 ([1]; Table 3 comparison with known antioxidants, read-out: Inhibition of lipid peroxidation, IC-50): 0.06 µM
IC50 ([1]; lipid peroxidation inhibition test, rat liver microsomes, Table 2, read-out: Antioxidative capacity (t-BuOOH-LP) IC50): 0.08 µM
Inhibition of aromatization (3H-17β-estradiol formation from 3H-androstenedione) (aromatase): no inhibitory effects
Main excreting metabolite in urine ([2]; male rats, 3, 15, 25 and 50 mg/kg once a day for two days, FIG. 5): enterolactone
Relation between doses of HMR and amounts of urinary enterolactone ([2]; male rats, 3 to 50 mg/kg): linear correlation
Unmetabolized HMR and other metabolites (enterodiol and 7-hydroxyenterolactone) found in urine ([2]; male rats, unchanged when daily dose increased): Only minute amounts
